Test results reported in patent US10603345B2, “Pharmaceutical composition for treating respiratory disease” (Kunming Institute of Botany, The Chinese Academy of Sciences, priority 2015, dated 2020).

Columns and labels:
Assay type in all cases: in vivo
[1] = tested on: white blood cell count and classification in BALF of COPD model mouse; test: Effect on white blood cell count and classification in BALF of COPD model mouse; settings: COPD mouse (LPS plus smoke exposure 30 days), ig 7 d, dose/kg: dexamethasone 1 mg, Test group 1 50, 2 25, 3 10, picrinine 10, vallesamine 6, scholaricine 7, 19-epi-scholaricine 2 mg, x ± SD
Procedure: (§1) Animal source: 25˜30 g male ICR mouse, from laboratory animal department of Kunming Medical University, License No. SCXK (Dian) 2011-0004.
(§2) Method and route: lipopolysaccharide (LPS) plus smoke exposure was used for 30 days to induce mouse chronic obstructive pulmonary disease model; and after intragastrical administration for 7 d at a dose of 20 mL/kg, the animal was sacrificed at the eighth day.
(§3) Picrinine group (10 mg/kg), Vallesamine group (6.0 mg/kg), Scholaricine group (7.0 mg/kg), 19-epischolaricine group (2.0 mg/kg).
(§4) Sample preparation: all the samples were prepared by using 0.5% carboxymethylcellulose sodium (0.5% CMC-Na).
Group and dose: in Test group 1, the ratio of picrinine, vallesamine, scholaricine and 19-epischolaricine by weight was 48:40:29:10, and the other groups and doses thereof were as described in Example 10.
Test index: total number of white blood cells and inflammatory cell classification in bronchoalveolar lavage fluid (BALF) were used as indexes, and were determined by full-automatic hemocytometer.

[2] = tested on: CRP in serum in COPD model mouse; test: Effect on CRP in serum in COPD model mouse; settings: ELISA, ig 7 d, dose/kg: dexamethasone 1 mg, Test group 1 50, 2 25, 3 10, picrinine 10, vallesamine 6, scholaricine 7, 19-epi-scholaricine 2 mg, x ± SD
Procedure: as §1, §2, §3, §4
Group and dose: in Test group 1, the ratio of picrinine, vallesamine, scholaricine and 19-epischolaricine by weight was 25:19:20:4, and the other groups and doses thereof were as described in Example 10.
Test index: CRP in serum was used as index, and was determined by enzyme linked immunosorbent assay.

[3] = tested on: SOD in serum and homogenate of COPD model mouse; test: Effect on SOD in serum and homogenate of COPD model mouse; settings: ig 7 d, dose/kg: dexamethasone 1 mg, Test group 1 50, 2 25, 3 10, picrinine 10, vallesamine 6, scholaricine 7, 19-epi-scholaricine 2 mg, x ± SD
Procedure: as §1, §2, §3, §4
Group and dose: in Test group 1, the ratio of picrinine, vallesamine, scholaricine and 19-epischolaricine by weight was 16:11:12:3, and the other groups and doses thereof were as described in Example 10.
Test index: SOD in serum and lung homogenate was used as index, and was determined by xanthine oxidase method.

[4] = tested on: MDA in serum and homogenate of COPD model mouse; test: Effect on MDA in serum and homogenate of COPD model mouse; settings: ig 7 d
Procedure: as §1, §2, §3, §4
Group and dose: in Test group 1, the ratio of picrinine, vallesamine, scholaricine and 19-epischolaricine by weight was 9:6:5:1, and the other groups and doses thereof were as described in Example 10.
Test index: MDA in serum and homogenate was used as index, and was determined by thibabituric acid method.

[5] = tested on: IL-4 in BALF of asthma model mouse; test: Effect on IL-4 in BALF of asthma model mouse; settings: ELISA, ig 7 d, dose/kg: dexamethasone 2.0 mg, Test group 1 50, 2 25, picrinine 5.0, vallesamine 3.0, scholaricine 3.0, 19-epi-scholaricine 3.5 mg, x ± SD
Procedure: as §1
(§5) Method and route: ovalbumin (OVA) was used to induce mouse asthma model, and after intragastrical administration for 7 d at a dose of 20 mL/kg, the animal was sacrificed at the eighth day.
(§6) Test group 1: picrinine, vallesamine, scholaricine and 19-epischolaricine prepared in Example 1.7 were homogeneously mixed at different ratios by weight (50 mg/kg), Test group 2: the alkaloid composition prepared in Example 1.4 (25 mg/kg). […]
as §4
Group and dose: in Test group 1, the ratio of picrinine, vallesamine, scholaricine and 19-epischolaricine by weight was 25:18:15:3, and the other groups and doses thereof were as described in Example 11. […]

[6] = tested on: SOD in serum and BALF of asthma model mouse; test: Effect on SOD in serum and BALF of asthma model mouse; settings: ig 7 d, dose/kg: dexamethasone 2.0 mg, Test group 1 50, 2 25, picrinine 5.0, vallesamine 3.0, scholaricine 3.0, 19-epi-scholaricine 3.5 mg, x ± SD
Procedure: as §1, §5, §6, §4
Group and dose: in Test group 1, the ratio of picrinine, vallesamine, scholaricine and 19-epischolaricine by weight was 12:10:9:2, and the other groups and doses thereof were as described in Example 11.
Test index: SOD in serum and BALF was used as index, and was determined by xanthine oxidase method.

[7] = tested on: MDA in serum and BALF of asthma model mouse; test: Effect on MDA in serum and BALF of asthma model mouse; settings: ig 7 d, dose/kg: dexamethasone 2.0 mg, Test group 1 50, 2 25, picrinine 5.0, vallesamine 3.0, scholaricine 3.0, 19-epi-scholaricine 3.5 mg, x ± SD
Procedure: as §1, §5, §6, §4
Group and dose: in Test group 1, the ratio of picrinine, vallesamine, scholaricine and 19-epischolaricine by weight was 8:6:5:1, and the other groups and doses thereof were as described in Example 11.
Test index: MDA in serum and BALF was used as index, and was determined by thiobarbituric acid method.

[8] = tested on: LDH in serum of pulmonary fibrosis model mouse; test: Effect on LDH in serum of pulmonary fibrosis model mouse; settings: bleomycin pulmonary fibrosis mouse, ig 28 d, dose/kg: prednisone acetate 5 mg, Test group 1 50, 2 25, 3 12.5, picrinine 5.0, vallesamine 3.0, scholaricine 3.5, 19-epi-scholaricine 1.0 mg, x ± SD
Procedure: (§7) Animal source: 30˜35 g male ICR mouse, from laboratory animal department of Kunming Medical University, License No. SCXK (Dian) 2011-0004.
(§8) Method and route: bleomycin was used to induce mouse pulmonary fibrosis, and after intragastrical administration for 28 d at a dose of 20 mL/kg, the animal was sacrificed at the 29th day.
(§9) Group and dose: Sham group, Model group, Positive control group, prednisone acetate (5 mg/kg) group, Test group 1: picrinine, vallesamine, scholaricine and 19-epischolaricine prepared in Example 1.7 were mixed at different ratios by weight (50 mg/kg), Test group 2: the alkaloid composition (25 mg/kg) prepared in Example 1.5, Test group 3: the alkaloid composition (12.5 mg/kg) prepared in Example 1.6, Picrinine group (5.0 mg/kg), Vallesamine group (3.0 mg/kg), Scholaricine group (3.5 mg/kg), and 19-epischolaricine group (1.0 mg/kg).
(§10) Positive control drug: prednisone acetate tablet, Approval number: H33021207, 5 mg/tablet, produced by Zhejiang Xianju Pharmaceutical Co., Ltd., Batch No. 140146.
(§11) Sample preparation: all the samples were prepared by using 0.5% carboxymethylcellulose sodium (0.5% CMC-Na). […]
Test index: LDH in serum was used as index, and was determined by 2, 4-dinitrophenylhydrazine method.

[9] = tested on: Hyp in homogenate of pulmonary fibrosis model mouse; test: Effect on Hyp in homogenate of pulmonary fibrosis model mouse; settings: bleomycin pulmonary fibrosis mouse, ig 28 d, dose/kg: prednisone acetate 5 mg, Test group 1 50, 2 25, 3 12.5, picrinine 5.0, vallesamine 3.0, scholaricine 3.5, 19-epi-scholaricine 1.0 mg, x ± SD
Procedure: as §7, §8, §9, §10, §11
Test index: Hyp in homogenate was used as index, and was determined by enzyme linked immunosorbent assay.

With `COC(=O)C1=C2Nc3c(O)cccc3[C@@]23CCN2C[C@@H]([C@@H](C)O)[C@@H]1C[C@H]23` [scholaricine] the Leukocyte number [1] was 2.5 ± 3.5 ×10^5/mL, the Neutrophil number [1] was 0.66 ± 0.81 ×10^5/mL and the CRP [2] was 24.4 ± 2.4 pg/mL. The SOD homogenate ([3]; lung homogenate) was 58.43 ± 7.04 U/mL, the “SOD Serum” value ([3]; serum) was 93.61 ± 12.37 U/mL and the “content of MDA (serum or homogenate not given)” value ([4]; vallesamine 6, scholaricine 7, 19-epi-scholaricine 2 mg/kg) was “significantly decrease”. For the same compound, the “MDA Homogenate” value ([4]; lung homogenate, dose/kg: dexamethasone 1 mg, Test group 1 50, 2 25, 3 10, picrinine 10, vallesamine 6, scholaricine 7, 19-epi-scholaricine 2 mg, x ± SD) was 6.09 ± 1.25 nmol/mL, the “MDA Serum” value ([4]; serum, dose/kg: dexamethasone 1 mg, Test group 1 50, 2 25, 3 10, picrinine 10, vallesamine 6, scholaricine 7, 19-epi-scholaricine 2 mg, x ± SD) was 12.21 ± 3.38 nmol/mL and the IL-4 [5] was 11.21 ± 3.62 pg/mL. For the same compound, the SOD lavage fluid ([6]; BALF) was 76.78 ± 8.01 U/mL, the SOD Serum ([6]; serum) was 73.36 ± 8.44 U/mL and the MDA lavage fluid ([7]; BALF) was 2.43 ± 1.05 nmol/mL. The MDA Serum ([7]; serum) was 9.19 ± 2.77 nmol/mL, the LDH [8] was 12.5 ± 3.2 U/g prot and the Hyp [9] was 6.5 ± 1.5 μg/g prot.
